Results: patent US20240408093A1, “HETEROBIFUNCTIONAL COMPOUNDS AND THEIR USE IN TREATING DISEASE” (HALDA THERAPEUTICS OPCO, INC., priority 2022, published 2024)
Where two headings read alike, the source gives them in different places.

Experiments:
GSPT1 = experiment: Payload release assay (DC50 readout), GSPT1 degradation in the presence of recombinant target protein; assay type: cell-based; details: I-series compounds (GSPT1 readout inferred)
KRAS G12C = KRAS G12C (Homo sapiens, UniProt P01116, G12C); experiment: KRAS G12C cellular target engagement assay (SW1573 cells); assay type: cell-based; parameters: host or cells: SW1573; details: 17 hours, read-out: TE50 (the source's name)
Method: SW1573 cells (ATCC CRL-2170) were cultured in RPMI 1640 (Gibco A1049101), supplemented with 10% Heat-inactivated FBS (Gibco Cat. #A38400-01) and 1% Penicillin/Streptomycin (Gibco Cat. #15140-122) in an incubator set at 37° C. and 5% CO2. Cells were seeded at 100,000 cells/ml in 1 ml of complete media in a 24-well, tissue culture-treated plate (Falcon 353226) and incubated overnight. Cells were treated with increasing concentrations of compound and let incubate at 37C and 5% CO2 for 17 hours, after which media was aspirated and cells were lysed in 75 uL RIPA Lysis and Extraction Buffer (Thermo 89901) supplemented with 5 mM MgCl2, Protease and Phosphatase inhibitor cocktail (Thermo 1861281), and Universal Nuclease (Thermo 88700). Plates with RIPA were shaken at 4° C. at 600 rpm for 15 min. After shaking samples, they were collected and spun down at 21,000 g for 15 min at 4° C. Following centrifugation, ˜10 ug of lysate was added to Laemmli Sample Buffer (Bio-Rad 1610747) plus 10% beta-mercaptoethanol, boiled for 15 minutes at 65° C. and loaded onto 12% Mini-PROTEAN TGX™ Precast Protein Gels (Bio-Rad). Protein was transferred to a nitrocellulose membrane (Thermo LC2000) using the iBlot 2 Dry Blotting System (Thermo). After transfer, membranes were washed in 1× TBST (Bioland Scientific LLC TBST0103) 3× for 5 min. Following the wash, blocking buffer (Rockland MB-070) was added for 1 hour at room temperature. Primary antibodies against KRAS (LifeSpan Bio LS-C175665) and actin (Cell Signaling Technology 8457) were added overnight at 4° C. Membranes were then washed again 3× for 5 min in 1× TBST. Secondary antibodies (LI-COR 926-68072 and 926-68073) were added and shaken for 1 hr at room temperature. Membranes were then washed 3× for 5 min in 1×TBST and developed. Membranes were placed on an Odyssey imager (LI-COR).

[1] = 0 μM recombinant KRAS G12C, read-out: DC50 at 0 μM KRAS G12C
[2] = 5 μM recombinant KRAS G12C, read-out: DC50 at 5 μM KRAS G12C

Chain of KRAS G12C (P01116 1-188 isoform P01116-2 G12C): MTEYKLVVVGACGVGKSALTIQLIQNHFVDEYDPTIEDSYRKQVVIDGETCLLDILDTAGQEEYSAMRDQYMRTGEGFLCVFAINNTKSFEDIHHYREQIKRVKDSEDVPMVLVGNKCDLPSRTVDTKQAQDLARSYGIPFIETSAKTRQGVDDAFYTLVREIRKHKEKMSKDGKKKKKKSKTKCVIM

Row | SMILES | DC50 (GSPT1; [1]) [µM] | DC50 (GSPT1; [2]) [µM] | EC50 (KRAS G12C) [µM]
1 | C=C(COc1cc(NC(=O)NCc2ccc3c(c2)CN(C2CCC(=O)NC2=O)C3=O)ccc1OC)C(=O)N1CCN(c2nc(OC[C@@H]3CCCN3C)nc3c2CCN(c2cccc4cccc(Cl)c24)C3)C[C@@H]1CC#N (stereo partly drawn) [Compound I-89] | 0.25 to 5 | > 10 | 0.25 to 5
2 | C=C(COc1c(CNC(=O)Nc2ccc(C)c(Cl)c2)ccc2c1CN(C1CCC(=O)NC1=O)C2=O)C(=O)N1CCN(c2nc(OC[C@@H]3CCCN3C)nc3c2CCN(c2cccc4cccc(Cl)c24)C3)C[C@@H]1CC#N (stereo partly drawn) [Compound I-90] | < 0.25 | < 0.25 | < 0.25
3 | C=C(COc1cc(Cl)cc(NC(=O)NCc2ccc3c(c2F)CN(C2CCC(=O)NC2=O)C3=O)c1)C(=O)N1CCN(c2nc(OC[C@@H]3CCCN3C)nc3c2CCN(c2cccc4cccc(Cl)c24)C3)C[C@@H]1CC#N (stereo partly drawn) [Compound I-116] | 0.25 to 5 | < 0.25 | < 0.25
